Measured values: ChEMBL document CHEMBL1141058, “Squaric monoamide monoester as a new class of reactive immunization hapten for catalytic antibodies” (Bioorg Med Chem Lett, 2005)

Assays:
[1] = tested on: Monoclonal antibody (mAb) 2D4; experiment: Reaction constant of paraoxon hydrolysis catalyse by monoclonal antibody, 2D4 determined in 50 mM bicine with 50 mM NaCl, pH 8.0, 5% DMSO cosolvent at 23 degree C
[2] = tested on: Monoclonal antibody (mAb) 2D4; experiment: Ratio of reaction constant of paraoxon hydrolysis catalysed by monoclonal antibody 2D4 to that of uncatalysed
[3] = tested on: Monoclonal antibody (mAb) 3C8; experiment: Ratio of reaction constant of paraoxon hydrolysis catalysed by monoclonal antibody 3C8 to that of uncatalysed
[4] = tested on: Monoclonal antibody (mAb) 3C8; experiment: Michaelis-Menten constant of monoclonal antibody, 3C8 for paraoxon hydrolysis determined in 50 mM bicine with 50 mM NaCl, pH 8.0, 5% DMSO cosolvent at 23 degree C
[5] = tested on: Monoclonal antibody (mAb) 2D4; experiment: Ratio of reaction constant of paraoxon hydrolysis catalysed by monoclonal antibody 2D4 to that Michaelis-Menten's constant
[6] = tested on: Monoclonal antibody (mAb) 3C8; experiment: Reaction constant of paraoxon hydrolysis catalyse by monoclonal antibody, 3C8 determined in 50 mM bicine with 50 mM NaCl, pH 8.0, 5% DMSO cosolvent at 23 degree C
[7] = tested on: Monoclonal antibody (mAb) 2D4; experiment: Michaelis-Menten's constant of monoclonal antibody, 2D4 for paraoxon hydrolysis determined in 50 mM bicine with 50 mM NaCl, pH 8.0, 5% DMSO cosolvent at 23 degree C
[8] = tested on: Monoclonal antibody (mAb) 3C8; experiment: Ratio of reaction constant of paraoxon hydrolysis catalysed by monoclonal antibody 3C8 to that Michaelis-Menten's constant

k cat [1]: 3.8e-05 s⁻¹
k cat/Kuncat [2]: 2310
k cat/Kuncat [3]: 2060
Km [4]: 1290 µM
k cat/Km [5]: 0.0322 M⁻¹ s⁻¹
k cat [6]: 3.38e-05 s⁻¹
Km [7]: 1180 µM
k cat/Km [8]: 0.0262 M⁻¹ s⁻¹
SMILES: CCOc1c(Nc2ccc(NC(=O)CCCC(=O)O)cc2)c(=O)c1=O
